Reference: patent US10098867B2, “Use of phytocannabinoids in the treatment of ovarian carcinoma” (GW Research Limited, priority 2013, dated 2018)
pIC50: −log10 of the molar value.

Tests used:
[1] = test system: ovarian carcinoma cell line, A2780; assay: MTT cell viability assay, single phytocannabinoids (Example 1); type: cell-based; details: A2780 cells; for pIC50: MTT
Experimental: (§1) An ovarian carcinoma cell line, A2780 was grown and maintained in RPMI 1640 medium supplemented with 10% fetal bovine serum at 37° C., 5% CO2. The cells were plated in 96-well culture plates at a density of 1×10^4 cells/well and allowed to adhere at 37° C. for 24 hours.
The cells were starved with 1% serum overnight, then treated with various concentrations of different phytocannabinoid ([…]) for various incubation periods.
The different phytocannabinoids tested were: cannabidiol (CBD); cannabidiol acid (CBDA); cannabigerol (CBG); cannabigerolic acid (CBGA); cannabigerol propyl variant (CBGV); and tetrahydrocannabivarin (THCV).
A cell viability assay, MTT, was performed following four different incubation times of 24 hours, 48 hours, 72 hours and 96 hours.
(§2) The supernatant was removed and MTT (3-(4,5-dimethylthiazol-2-yl)-2,5-diphenyltetrazolium bromide) was added for 4 hours. The ability of cells to form formazan crystals by active mitochondrial respiration was determined by using a Microplate reader after dissolving the crystals in DMSO.
(§3) Cytotoxicity was expressed as a relative percentage of the absorbance measured at 540 nm in the control and drug-treated cells. IC50 values were also calculated.
(§4) In all experiments data were presented as the mean and analysed using ANOVA followed by Dunnet's t-test; n=4.

[2] = test system: ovarian carcinoma cell line, A2780; assay: MTT cell viability assay, combinations of phytocannabinoids (Example 2); type: cell-based; details: Homo sapiens, A2780 cells
Experimental: as §1
The different phytocannabinoid combinations that were tested were: A: cannabidiol (CBD) in combination with tetrahydrocannabivarin (THCV) and B: CBD in combination with cannabigerol (CBG).
The cells were starved with 1% serum overnight. In Experiment A various doses of CBD (1 nM-10 μM) were tested in the absence or presence of 1 hours pre-treatment of THCV (1 μM) for various incubation periods. In Experiment B various doses of CBD (1 nM-10 μM) were tested in the absence or presence of CBG (1 nM-100 μM) for various incubation periods.
A cell viability assay, MTT, was performed following four different incubation times of 24 hours, 48 hours (CBG combination only), 72 hours and 96 hours.
as §2, §3, §4

[3] = Homo sapiens, 24 hours incubation
[4] = Homo sapiens, 48 hours incubation
[5] = Homo sapiens, 72 hours incubation
[6] = Homo sapiens, 96 hours incubation
[7] = A2780, 24 h, Experiment A (CBD with or without 1 hour pre-treatment with THCV 1 μM), 24 hours
[8] = A2780, 72 h, Experiment A (CBD with or without 1 hour pre-treatment with THCV 1 μM), 72 hours
[9] = A2780, 96 h, Experiment A (CBD with or without 1 hour pre-treatment with THCV 1 μM), 96 hours
[10] = 24 hours after the cannabinoids were added
[11] = A2780, 24 h, Experiment B (CBD in absence or presence of CBG), 24 hours
[12] = A2780, 48 h, Experiment B (CBD in absence or presence of CBG), 48 hours
[13] = A2780, 72 h, Experiment B (CBD in absence or presence of CBG), 72 hours
[14] = A2780, 96 h, Experiment B (CBD in absence or presence of CBG), 96 hours

Molecule: CCCc1cc(O)c2c(c1)OC(C)(C)[C@@H]1CCC(C)=C[C@@H]21 [THCV, Tetrahydrocannabivarin]
- pIC50 [1, 3]: 5.10
- pIC50 [1, 4]: 5.24
- pIC50 [1, 5]: 5.06
- pIC50 [1, 6]: 5.05
- pIC50 [2, 7]: 4.79
- pIC50 [2, 8]: 4.83
- pIC50 [2, 9]: 4.98

Molecule: C=C(C)[C@@H]1CCC(C)=C[C@H]1c1c(O)cc(CCCCC)cc1O [CBD, Cannabidiol]
- potency in words [1, 10]: very potent
- pIC50 [1, 3]: 6.01
- pIC50 [1, 4]: 6.02
- pIC50 [1, 5]: 5.72
- pIC50 [1, 6]: 5.44
- pIC50 [2, 7]: 4.90
- pIC50 [2, 11]: 4.93
- pIC50 [2, 12]: 5.16
- pIC50 [2, 8]: 5.23
- pIC50 [2, 13]: 5.10
- pIC50 [2, 9]: 5.25
- pIC50 [2, 14]: 5.35

Molecule: Cannabigerolic acid [CBGA]
- pIC50 ([1]; 24 hours incubation): 4.90
- pIC50 ([1]; 48 hours incubation): 5.00
- pIC50 ([1]; 72 hours incubation): 5.03

Molecule: CCCCCc1cc(O)c(C/C=C(\C)CCC=C(C)C)c(O)c1 [CBG, Cannabigerol]
- potency in words [1, 10]: very potent
- potency in words ([1]; after 48 hours): marginally more potent than CBD
- pIC50 [1, 3]: 5.70
- pIC50 [1, 4]: 6.08
- pIC50 [1, 5]: 6.07
- pIC50 [1, 6]: 5.47
- pIC50 [2, 11]: 4.86
- pIC50 [2, 12]: 5.02
- pIC50 [2, 13]: 5.00
- pIC50 [2, 14]: 5.05

Molecule: CCCc1cc(O)c(C/C=C(\C)CCC=C(C)C)c(O)c1 [CBGV, Cannabigerol propyl variant]
- pIC50 [1, 3]: 5.22
- pIC50 [1, 4]: 5.46
- pIC50 [1, 5]: 5.40

Molecule: C=C(C)[C@@H]1CCC(C)=C[C@H]1c1c(O)cc(CCCCC)c(C(=O)O)c1O [CBDA, Cannabidiolic acid]
- pIC50 [1, 3]: 4.80
- pIC50 [1, 4]: 5.02
- pIC50 [1, 5]: 5.00
- pIC50 [1, 6]: 4.93
